The text below walks through data of patent publication US9080197B2, “Equol level regulator” (priority 2005, dated 2015).

Test [1] relates to feces of an equol producer (microorganisms having conversion ability to equol). The experiment in a line: Effect of carbohydrates upon equol production in anaerobic culture of feces of an equol producer with daidzein. Format: cell-based. The conditions noted are these: carbohydrate 1%. From the text:
The equol concentration regulating activity of a carbohydrate can be checked by taking feces from a human having ability to produce equol (equol producer), adding daidzein serving as a substrate for equol and a target carbohydrate to the feces thus taken, culturing the feces, determining the concentration of equol in the culture medium and fitting the determined equol concentration to the following equation in comparison with the concentration of equol in a culture medium containing no carbohydrate. Equal concentration regulating activity (%)=(equol concentration of a culture medium containing a target carbohydrate)/(equol concentration of a culture medium containing no carbohydrate)×100
Fresh feces of an equol producer were suspended in a dilute solution (10-fold by volume) containing 0.00255% of KH2PO4, 0.00255% of K2HPO4, 0.006% of NaCl, […] of (NH4)2SO4, 0.000255% of CaCl2, 0.000255% of MgSO4, 0.1% of a 0.1% resazurin solution, 2.2% of an 8% Na2CO3 solution and 0.05% of L-cysteine hydrochloride by use of glass beads (φ 3 mm) in anaerobic conditions and solid matter was removed by use of sterilized gauze. The solution was centrifuged at 8,000 rpm for 10 minutes. Precipitation was suspended in a dilute solution in the same amount thereof. The solution was stored in a freezer at −30° C. as it was.
The feces dilution solution was thawed and centrifuged again. Precipitation was resuspended in PY medium (100-fold by volume) containing 0.5% of peptone, 0.5% of trypticase peptone, 1% of yeast extract, 0.00005% of hemin, 0.0001% of vitamin K1, 0.05% of L-cysteine hydrochloride, 0.0006% of KH2PO4, 0.0006% of K2HPO4, 0.0012% of NaCl, 0.0006% of (NH4)2SO4, 0.00006% of CaCl2 and 0.00006% of MgSO4. At this time, adonitol, arabinose, cellobiose, erythritol, fructo-oligosaccharide, fructose, galactose, glucose, glycogen, inositol, […], lactitol, lactose, lactulose, maltose, mannitol, mannose, melezitose, melibiose, raffinose, rhamnose, ribose, sorbitol, sorbose, sucrose, trehalose, xylose, or galacto-oligosaccharide was added so as to obtain a final concentration of 1%. Simultaneously, a series of sample containing no carbohydrate was prepared. To the series of samples, daidzein was added so as to obtain a final concentration of 100 μM. Culture was performed in completely anaerobic conditions at 37° C. for 16 hours. Note that culture was performed independently in four series. From the culture solution obtained, daidzein and equol were extracted and subjected to HPLC analysis. Note that inositol used herein is myo-inositol manufactured by SIGMA and glycogen was one derived from oyster and manufactured by SIGMA. Trehalose is D(+) trehalose (α,α form) manufactured by SIGMA and galacto-oligosaccharide is TOS-S, which is a mixture of 4′galactosyl-lactose and 6′galactosyl-lactose, and manufactured by Yakult Pharmaceutical Industry Co., Ltd. Fructo-oligosaccharide is a mixture of 1-kestose, nystose and 1-fructosyl-D-nystose manufactured by Wako Pure Chemical Industries, Ltd.
Daidzein and equol were extracted by the following manner. To 500 μL of a culture solution, 250 μL of diethyl ether was added and sufficiently stirred. The solution mixture was centrifuged at 2,000 rpm for 10 minutes to obtain a diethyl ether layer. The remaining aqueous layer was subjected to diethyl ether extraction performed in the same manner. The ether layers obtained in the two extraction operations were combined, concentrated and dried under spray of nitrogen gas flow at 40° C. The dried product was dissolved in 250 μL of 80% methanol and filtrated through a filter to obtain a sample to be subjected to measurement.
Furthermore, HPLC was performed in the following conditions:
Daidzein and equol standard products were poured in the aforementioned conditions to form calibration curves, respectively. In this manner, daidzein and equol concentrations of the samples were determined. […]

For test [2] the following is noted: rat, Non-Patent Document 5; cited from earlier work.

With Inulin [reference compound], the “daidzein added to the medium remaining” value in test [1] (100 μM of daidzein added) was “mostly remained”. Further, in test [1], the “effect on daidzein-to-equol conversion rate in this test system” value is “significantly decreases”. In test [1] (daidzein 100 μM, 16 hours), the equol production result is listed as “not observed”. For the same substance, the “Equol concentration in medium” value in test [1] (daidzein 100 μM, anaerobic, 37° C., 16 hours, no carbohydrate 18.1 μM) was determined as 0.0 µM. For the same substance, the “Equol concentration regulating activity” value in test [1] (relative to medium containing no carbohydrate (=100%), daidzein 100 μM, 16 hours) is recorded as 0.0%. Besides, the “equol concentration in the serum” value in test [2] is “reduces”.
